{
  "source": "paper PMC6829864",
  "about": "“Determination of Ligand Profiles for Pseudomonas aeruginosa Solute Binding Proteins” (International Journal of Molecular Sciences, 2019)",
  "key": {"PA0222 [1]": {"molecular_target": "T1, PA0222 (Pseudomonas aeruginosa, UniProt Q9I6R6)", "T1 sequence (Q9I6R6 29-352)": "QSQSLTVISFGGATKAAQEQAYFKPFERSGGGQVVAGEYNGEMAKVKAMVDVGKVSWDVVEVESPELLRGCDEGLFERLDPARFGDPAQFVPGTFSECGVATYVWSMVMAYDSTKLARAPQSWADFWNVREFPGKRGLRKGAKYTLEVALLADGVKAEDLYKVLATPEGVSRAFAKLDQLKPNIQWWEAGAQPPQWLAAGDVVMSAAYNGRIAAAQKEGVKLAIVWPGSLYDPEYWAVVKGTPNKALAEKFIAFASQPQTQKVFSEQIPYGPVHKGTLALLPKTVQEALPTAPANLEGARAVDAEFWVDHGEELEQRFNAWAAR", "assay": "Isothermal titration calorimetry, PA0222", "type": "binding, Pseudomonas aeruginosa PAO1", "settings": "25 °C"}, "PA3610 (potD) [2]": {"molecular_target": "T2, PA3610 (potD) (Pseudomonas aeruginosa, UniProt Q9HY16)", "T2 sequence (Q9HY16 21-354)": "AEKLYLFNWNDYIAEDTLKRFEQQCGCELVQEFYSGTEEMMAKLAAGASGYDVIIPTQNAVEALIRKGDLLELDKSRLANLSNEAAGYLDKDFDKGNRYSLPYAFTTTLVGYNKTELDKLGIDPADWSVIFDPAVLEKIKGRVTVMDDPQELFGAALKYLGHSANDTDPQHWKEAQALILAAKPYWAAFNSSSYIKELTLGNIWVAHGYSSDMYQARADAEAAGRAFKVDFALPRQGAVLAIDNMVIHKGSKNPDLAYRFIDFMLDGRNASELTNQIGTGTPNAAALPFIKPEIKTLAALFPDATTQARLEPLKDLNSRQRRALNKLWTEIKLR", "assay": "Isothermal titration calorimetry, PA3610", "type": "binding, Pseudomonas aeruginosa PAO1", "settings": "25 °C"}, "PA2592 [3]": {"molecular_target": "T3, PA2592 (Pseudomonas aeruginosa, UniProt Q9I0P5)", "T3 sequence (Q9I0P5 20-367)": "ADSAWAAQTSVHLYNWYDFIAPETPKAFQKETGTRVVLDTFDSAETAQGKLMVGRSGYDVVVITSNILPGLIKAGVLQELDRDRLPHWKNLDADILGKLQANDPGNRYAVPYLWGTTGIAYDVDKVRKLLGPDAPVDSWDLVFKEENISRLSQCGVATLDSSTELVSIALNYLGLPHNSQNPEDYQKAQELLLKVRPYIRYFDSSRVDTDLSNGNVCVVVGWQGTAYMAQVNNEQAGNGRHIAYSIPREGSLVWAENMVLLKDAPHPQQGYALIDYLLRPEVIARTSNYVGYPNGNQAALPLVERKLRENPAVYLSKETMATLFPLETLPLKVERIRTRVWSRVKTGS", "assay": "biochemical", "type": "binding"}, "PA2592 [4]": {"molecular_target": "T3, PA2592", "assay": "DSF thermal shift ligand screening, PA2592", "type": "binding, Pseudomonas aeruginosa PAO1", "settings": "arrays PM2A, PM3B, PM5"}, "PA0283 (sbp) [5]": {"molecular_target": "PA0283 (sbp)", "assay": "Isothermal titration calorimetry, PA0283", "type": "binding, Pseudomonas aeruginosa PAO1", "settings": "25 °C"}, "PA0283 (sbp) [6]": {"tested_on": "PA0283 (sbp)", "assay": "DSF thermal shift ligand screening, PA0283", "type": "binding, Pseudomonas aeruginosa PAO1", "settings": "Tm change vs ligand-free protein"}, "PA1493 (cysP) [7]": {"molecular_target": "T4, PA1493 (cysP) (Pseudomonas aeruginosa, UniProt Q9I3L9)", "T4 sequence (Q9I3L9 23-332)": "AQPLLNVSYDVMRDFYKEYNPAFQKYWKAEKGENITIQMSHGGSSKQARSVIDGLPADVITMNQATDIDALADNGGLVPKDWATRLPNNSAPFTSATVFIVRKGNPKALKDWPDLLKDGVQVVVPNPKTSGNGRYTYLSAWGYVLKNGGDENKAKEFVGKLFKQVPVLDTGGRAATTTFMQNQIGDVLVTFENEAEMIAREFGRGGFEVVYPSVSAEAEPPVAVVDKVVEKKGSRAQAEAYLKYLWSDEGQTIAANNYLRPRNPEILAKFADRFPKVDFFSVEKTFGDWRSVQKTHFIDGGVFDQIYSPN", "assay": "biochemical", "type": "binding, Pseudomonas aeruginosa PAO1"}, "[8]": {"tested_on": "Pseudomonas aeruginosa PAO1", "type": "cell-based", "settings": "chemoeffector 1 mM, except molybdate 0.1 mM"}, "PA1493 (cysP) [9]": {"molecular_target": "T4, PA1493 (cysP)", "settings": "Tm change vs ligand-free protein"}, "PA1342 (aatJ) [10]": {"molecular_target": "T5, PA1342 (aatJ) (Pseudomonas aeruginosa, UniProt Q9I402)", "T5 sequence (Q9I402 24-302)": "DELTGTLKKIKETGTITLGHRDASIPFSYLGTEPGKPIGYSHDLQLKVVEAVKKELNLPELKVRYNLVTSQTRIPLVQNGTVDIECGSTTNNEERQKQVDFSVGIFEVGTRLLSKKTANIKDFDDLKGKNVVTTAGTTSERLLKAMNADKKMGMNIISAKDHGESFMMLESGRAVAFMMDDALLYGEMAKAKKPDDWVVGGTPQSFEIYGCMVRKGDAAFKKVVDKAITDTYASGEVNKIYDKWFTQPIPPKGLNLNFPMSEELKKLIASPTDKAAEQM", "type": "binding", "settings": "25 °C"}, "PA3610 (potD) [11]": {"molecular_target": "T2, PA3610 (potD)", "assay": "DSF thermal shift ligand screening, PA3610", "type": "binding, Pseudomonas aeruginosa PAO1", "settings": "Tm change vs ligand-free protein"}, "PA0222 [12]": {"molecular_target": "T1, PA0222", "type": "binding", "settings": "Tm change vs ligand-free protein"}, "PA3889 (opuCC) [13]": {"molecular_target": "T6, PA3889 (opuCC) (Pseudomonas aeruginosa, UniProt Q9HXC4)", "T6 sequence (Q9HXC4 24-311)": "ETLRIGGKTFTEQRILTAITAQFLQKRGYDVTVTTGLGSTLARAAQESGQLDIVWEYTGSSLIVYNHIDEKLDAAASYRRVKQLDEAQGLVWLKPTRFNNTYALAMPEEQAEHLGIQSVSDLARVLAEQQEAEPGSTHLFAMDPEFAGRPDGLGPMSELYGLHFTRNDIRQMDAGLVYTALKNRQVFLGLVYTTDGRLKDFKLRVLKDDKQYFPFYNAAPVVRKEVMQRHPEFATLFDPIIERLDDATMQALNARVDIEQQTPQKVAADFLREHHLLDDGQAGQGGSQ", "assay": "Isothermal titration calorimetry, PA3889", "type": "binding, Pseudomonas aeruginosa PAO1", "settings": "25 °C"}, "PA3889 (opuCC) [14]": {"molecular_target": "T6, PA3889 (opuCC)", "assay": "DSF thermal shift ligand screening, PA3889", "type": "binding, Pseudomonas aeruginosa PAO1", "settings": "Tm change vs ligand-free protein"}, "PA2338 [15]": {"molecular_target": "T7, PA2338 (Pseudomonas aeruginosa, UniProt Q9I1E0)", "T7 sequence (Q9I1E0 23-436)": "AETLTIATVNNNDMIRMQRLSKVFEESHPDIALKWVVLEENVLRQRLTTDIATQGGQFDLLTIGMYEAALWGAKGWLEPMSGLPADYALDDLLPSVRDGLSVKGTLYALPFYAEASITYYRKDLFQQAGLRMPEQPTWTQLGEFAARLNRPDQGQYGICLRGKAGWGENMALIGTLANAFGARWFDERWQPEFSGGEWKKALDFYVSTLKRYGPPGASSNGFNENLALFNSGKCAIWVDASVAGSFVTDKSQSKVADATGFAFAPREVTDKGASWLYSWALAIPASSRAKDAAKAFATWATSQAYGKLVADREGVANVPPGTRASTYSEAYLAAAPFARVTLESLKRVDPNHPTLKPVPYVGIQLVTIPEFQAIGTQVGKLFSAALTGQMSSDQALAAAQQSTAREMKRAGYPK", "assay": "Isothermal titration calorimetry, PA2338", "type": "binding, Pseudomonas aeruginosa PAO1", "settings": "25 °C"}, "PA2338 [16]": {"molecular_target": "T7, PA2338", "assay": "DSF thermal shift ligand screening, PA2338", "type": "binding, Pseudomonas aeruginosa PAO1", "settings": "Tm change vs ligand-free protein"}, "PA1074 (braC) [17]": {"molecular_target": "T8, PA1074 (braC) (Pseudomonas aeruginosa, UniProt P21175)", "T8 sequence (P21175 27-373)": "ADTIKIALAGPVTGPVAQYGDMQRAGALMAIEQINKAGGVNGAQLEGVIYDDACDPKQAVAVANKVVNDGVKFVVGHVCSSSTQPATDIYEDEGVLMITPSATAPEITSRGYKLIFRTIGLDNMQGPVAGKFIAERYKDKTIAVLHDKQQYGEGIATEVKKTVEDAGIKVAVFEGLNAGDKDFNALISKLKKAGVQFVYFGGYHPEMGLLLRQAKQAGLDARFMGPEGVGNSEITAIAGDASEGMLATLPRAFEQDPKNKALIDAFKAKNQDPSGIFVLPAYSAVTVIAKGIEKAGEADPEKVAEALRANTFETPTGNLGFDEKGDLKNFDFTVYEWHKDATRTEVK", "assay": "biochemical", "type": "binding, Pseudomonas aeruginosa PAO1"}, "PA1074 (braC) [18]": {"molecular_target": "T8, PA1074 (braC)", "type": "binding, Pseudomonas aeruginosa PAO1", "settings": "Tm change vs ligand-free protein"}, "PA1342 (aatJ) [19]": {"molecular_target": "T5, PA1342 (aatJ)", "assay": "DSF thermal shift ligand screening, PA1342", "type": "binding, Pseudomonas aeruginosa PAO1", "settings": "Tm change vs ligand-free protein"}, "PA4687 (hitA) [20]": {"tested_on": "PA4687 (hitA)", "type": "binding, Pseudomonas aeruginosa PAO1"}, "PA4687 (hitA) [21]": {"tested_on": "PA4687 (hitA)", "settings": "Tm change vs ligand-free protein"}},
  "note": "Entries after “also recorded” stand apart in the source; their conditions may differ.",
  "data": [
    {"molecule": "NCCc1c[nH]cn1", "note": "[Histamine]", "values": [
      {"measurement": "No Binding Observed by ITC", "setting": "PA0222 [1]", "value": "failed to bind; also recorded: no measurable affinity"},
      {"measurement": "No Binding Observed by ITC", "setting": "PA3610 (potD) [2]", "value": "did not reveal any binding"},
      {"measurement": "KD by ITC", "setting": "PA2592 [3]; PA2592, 25 °C", "value": "No binding"},
      {"measurement": "No Binding Observed by ITC", "setting": "PA2592 [3]; PA2592, 25 °C", "value": "no binding"},
      {"measurement": "Tm DSF (Tm increase)", "setting": "PA2592 [4]", "value": 3.9, "unit": "°C"}
    ]},
    {"molecule": "O=S(O)(O)=S", "note": "[Thiosulphate]", "values": [
      {"measurement": "KD by ITC", "setting": "PA0283 (sbp) [5]", "value": "No binding No binding"},
      {"measurement": "Tm DSF (Tm increase)", "setting": "PA0283 (sbp) [6]", "value": 2.1, "unit": "°C"},
      {"measurement": "Kd", "setting": "PA1493 (cysP) [7]", "value": "0.29 ± 0.2", "unit": "µM"},
      {"measurement": "Chemotaxis response in words", "setting": "[8]", "value": "moderate taxis"},
      {"measurement": "Tm DSF (Tm increase)", "setting": "PA1493 (cysP) [9]", "value": 7.4, "unit": "°C"}
    ]},
    {"molecule": "NC(=O)C[C@H](N)C(=O)O", "note": "[L-Asn]", "values": [
      {"measurement": "No Binding Observed by ITC", "setting": "PA1342 (aatJ) [10]", "value": "No binding was observed"}
    ]},
    {"molecule": "NCCCCN", "note": "[Putrescine]", "values": [
      {"measurement": "Tm DSF (Tm increase)", "setting": "PA3610 (potD) [11]", "value": 13, "unit": "n. d.^2 °C"},
      {"measurement": "Tm DSF (Tm increase)", "setting": "PA3610 (potD) [11]; listed as putrescine", "value": 13, "unit": "°C"},
      {"measurement": "No Binding Observed by ITC", "setting": "PA0222 [1]", "value": "no measurable affinity"},
      {"measurement": "Kd", "setting": "PA3610 (potD) [2]; read-out: KD by ITC (converted)", "value": "4.8 ± 0.4", "unit": "µM"},
      {"measurement": "Kd", "setting": "PA2592 [3]", "value": "31 ± 4", "unit": "µM"},
      {"measurement": "Tm DSF (Tm increase)", "setting": "PA2592 [4]", "value": 4.4, "unit": "°C"}
    ]},
    {"molecule": "NC(=O)CC[C@H](N)C(=O)O", "note": "[L-Gln]", "values": [
      {"measurement": "No Binding Observed by ITC", "setting": "PA1342 (aatJ) [10]", "value": "No binding was observed"}
    ]},
    {"molecule": "NCCCC(=O)O", "note": "[GABA, γ-amino-butyric acid]", "values": [
      {"measurement": "Tm DSF (Tm increase)", "setting": "PA0222 [12]", "value": 9.6, "unit": "°C"}
    ]},
    {"molecule": "C[N+](C)(C)C[C@H](O)CC(=O)[O-]", "note": "[L-carnitine]", "values": [
      {"measurement": "KD by ITC", "setting": "PA3889 (opuCC) [13]", "value": "No binding"},
      {"measurement": "No Binding Observed by ITC", "setting": "PA3889 (opuCC) [13]", "value": "no binding heats were observed"},
      {"measurement": "Chemotaxis", "setting": "[8]; capillary assay, 30 min", "value": "Yes Yes (Positive chemotaxis was considered when the number of bacterial cells per capillary was superior to 5000.)"},
      {"measurement": "Chemotaxis response in words", "setting": "[8]", "value": "very strong taxis"},
      {"measurement": "Tm DSF (Tm increase)", "setting": "PA3889 (opuCC) [14]", "value": 2.8, "unit": "°C"}
    ]},
    {"molecule": "NCCCCNCCCN", "note": "[Spermidine]", "values": [
      {"measurement": "Tm DSF (Tm increase)", "setting": "PA3610 (potD) [11]", "value": "did not stabilize the protein"},
      {"measurement": "No Binding Observed by ITC", "setting": "PA0222 [1]", "value": "failed to bind; also recorded: no measurable affinity"},
      {"measurement": "No Binding Observed by ITC", "setting": "PA3610 (potD) [2]", "value": "did not reveal any binding"},
      {"measurement": "No Binding Observed by ITC", "setting": "PA2592 [3]; PA2592, 25 °C", "value": "no binding"}
    ]},
    {"molecule": "C[N+](C)(C)CC(=O)O", "note": "[Glycine-betaine]", "values": [
      {"measurement": "Kd", "setting": "PA3889 (opuCC) [13]; read-out: KD by ITC", "value": "3 ± 0.4", "unit": "µM"},
      {"measurement": "Chemotaxis response in words", "setting": "[8]", "value": "very strong taxis"},
      {"measurement": "Tm DSF (Tm increase)", "setting": "PA3889 (opuCC) [14]", "value": 3.2, "unit": "°C"}
    ]},
    {"molecule": "CC(N)CCC(=O)O", "note": "(stereo not drawn) [4-aminovalerate, 4-aminovaleric acid]", "values": [
      {"measurement": "KD by ITC", "setting": "PA0222 [1]", "value": "No binding"},
      {"measurement": "No Binding Observed by ITC", "setting": "PA0222 [1]", "value": "failed to bind"},
      {"measurement": "Tm DSF (Tm increase)", "setting": "PA0222 [12]", "value": 2.2, "unit": "°C"}
    ]},
    {"molecule": "OC[C@@H](O)[C@@H](O)[C@H](O)[C@H](O)CO", "note": "[Mannitol]", "values": [
      {"measurement": "Kd", "setting": "PA2338 [15]; read-out: KD by ITC", "value": "0.83 ± 0.2", "unit": "µM"},
      {"measurement": "Tm DSF (Tm increase)", "setting": "PA2338 [16]", "value": 4.1, "unit": "°C"}
    ]},
    {"molecule": "CC(C)C[C@H](N)C(=O)O", "note": "[L-Leu]", "values": [
      {"measurement": "Kd", "setting": "PA1074 (braC) [17]", "value": 0.29, "unit": "µM"},
      {"measurement": "Tm DSF (Tm increase)", "setting": "PA1074 (braC) [18]", "value": "4.0 12.1 10.1 10.2 3.0 3.5 5.0 3.8 4.2 °C"}
    ]},
    {"molecule": "N[C@@H](CC(=O)O)C(=O)O", "note": "[L-Asp]", "values": [
      {"measurement": "Tm DSF (Tm increase)", "setting": "PA1342 (aatJ) [19]", "value": 10.9, "unit": "°C"}
    ]},
    {"molecule": "Iron(III) citrate", "values": [
      {"measurement": "No Binding Observed by ITC", "setting": "PA4687 (hitA) [20]", "value": "did not show any binding"},
      {"measurement": "Tm DSF (Tm increase)", "setting": "PA4687 (hitA) [21]", "value": "no significant increases in Tm"}
    ]},
    {"molecule": "OC[C@H]1O[C@H](O[C@H]2[C@H](O)[C@@H](O)C(O)O[C@@H]2CO)[C@H](O)[C@@H](O)[C@@H]1O", "note": "(mixture of isomers) [Maltose]", "values": [
      {"measurement": "No Binding Observed by ITC", "setting": "PA2338 [15]", "value": "absence of maltose binding"}
    ]}
  ]
}
